The record followed here is ChEMBL document CHEMBL1146565, “Intercedensides A-C, three new cytotoxic triterpene glycosides from the sea cucumber Mensamaria intercedens Lampert” (2003).

The experiment deals with Pyricularia oryzae. Description: Antimicrobial activity against Pyricularia oryzae P-2b assessed as drug concentration causing minimum morphological deformation. Type of experiment: functional.

Structures are written as SMILES.

On to `O=c1[nH]cc(F)c(=O)[nH]1` [FLUOROURACIL], for which the Activity entry was “<=5 ug ml-1”.
